Like-named read-outs stand apart in the source and are kept apart here.
Assays:
[1] = test system: HIF-1α; assay: HIF1 activation, ODD reporter assay; type: cell-based; details: measured at 10 μM
Protocol: (§1) The present compounds were evaluated for an ability to activate Nrf2 and HIF-1α. Table 1 summarizes Nrf2 activation data obtained in Neh2-luc reporter assay; and HIF1 activation measured in ODD reporter assay.

[2] = molecular target: T1, Human HDAC1 (Homo sapiens, UniProt Q13547); assay: HDAC1 inhibition assay (fluorogenic p53 peptide substrate); type: biochemical
T1 construct: Full length with C-terminal GST tag, MW=79.9 kDa; GST (C); host or cells: Sf9 insect cells (baculovirus)
T1 sequence (Q13547 whole entry): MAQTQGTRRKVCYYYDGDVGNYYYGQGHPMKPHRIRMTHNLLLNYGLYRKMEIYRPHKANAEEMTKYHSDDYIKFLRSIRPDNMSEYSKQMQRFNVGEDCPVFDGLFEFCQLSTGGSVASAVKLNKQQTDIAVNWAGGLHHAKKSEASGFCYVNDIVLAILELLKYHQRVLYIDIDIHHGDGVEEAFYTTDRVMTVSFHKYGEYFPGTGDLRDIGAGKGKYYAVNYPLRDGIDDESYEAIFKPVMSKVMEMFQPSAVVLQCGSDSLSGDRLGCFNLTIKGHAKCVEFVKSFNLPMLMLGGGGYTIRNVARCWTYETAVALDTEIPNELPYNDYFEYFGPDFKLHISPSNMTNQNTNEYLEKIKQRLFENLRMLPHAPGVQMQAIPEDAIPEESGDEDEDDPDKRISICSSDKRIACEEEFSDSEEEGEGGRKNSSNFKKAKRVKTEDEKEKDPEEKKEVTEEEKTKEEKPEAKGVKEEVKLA
Protocol: The HDAC1, 2, 4, 5, 6, 7, 8, 9, 10, and 11 assays used isolated recombinant human protein; HDAC3/NcoR2 complex was used for the HDAC3 assay. Substrate for HDAC1, 2, 3, 6, 10, and 11 assays is a fluorogenic peptide from p53 residues 379-382 (RHKKAc); substrate for HDAC8 is fluorogenic diacyl peptide based on residues 379-382 of p53 (RHKAcKAc). Acetyl-Lys(trifluoroacetyl)-AMC substrate was used for HDAC4, 5, 7, and 9 assays. Compounds were dissolved in DMSO and tested in 10-dose IC50 mode with 3-fold serial dilution starting at 30 μM. Control Compound Trichostatin A (TSA) was tested in a 10-dose IC50 with 3-fold serial dilution starting at 5 μM. IC50 values were extracted by curve-fitting the dose/response slopes. Assays were performed in duplicate and IC50 values are an average of data from both experiments.
Human HDAC1 (GenBank Accession No. NM_004964): Full length with C-terminal GST tag, MW=79.9 kDa, expressed by baculovirus expression system in Sf9 cells. Enzyme is in 50 mM Tris-HCl, pH 8.0, 138 mM NaCl, 20 mM glutathione, and 10% glycerol, and stable for >6 months at −80° C. Purity is >10% by SDS-PAGE. Specific Activity is 20 U/μg, where one U=1 pmol/min under assay condition of 25 mM Tris/Cl, pH8.0, 137 mM NaCl, 2.7 mM KCl, 1 mM MgCl2, 0.1 mg/ml BSA, 100 μM HDAC substrate, and 13.2 ng/μl HDAC1, incubation for 30 min at 30° C.
Substrate for HDAC1 and HDAC6: Acetylated peptide substrate for HDAC, based on residues 379-382 of p53 (Arg-His-Lys-Lys(Ac)), a site of regulatory acetylation by the p300 and CBP acetyltransferases (lysines 381, 382)1-6, is the best for HDAC from among a panel of substrates patterned on p53, histone H3 and histone H4 acetylation sites7.
Reaction Buffer: 50 mM Tris-HCl, pH 8.0, 137 mM NaCl, 2.7 mM KCl, 1 mM MgCl2, 1 mg/ml BSA.
HDAC1: 75 nM HDAC1 and 50 μM HDAC substrate are in the reaction buffer and 1% DMSO final. Incubate for 2 hours at 30° C.
All IC50 values are automatically calculated using the GraphPad Prism version 5 and Equation of Sigmoidal dose-response (variable slope): Y=Bottom+(Top−Bottom)/(1+10^((Log EC50−X)*HillSlope)), where X is the logarithm of concentration, Y is the response, Y starts at Bottom and goes to Top with a sigmoid shape. In most cases, “Bottom” is set 0, and “Top” is set “less than 120%”. This is identical to the “four parameter logistic equation”. IC50 curves also are drawn using the GraphPad Prism, and IC50 values and Hill slopes are provided.
HDAC Activity Assays: HDAC assay is performed using fluorescently-labeled acetylated substrate, which comprises an acetylated lysine side chain. After incubation with HDAC, deacetylation of the substrate sensitizes the substrate such that, in a second step, treatment with the detection enzyme produces a fluorophore. HDACs 1 and 6 were expressed as full length fusion proteins. Purified proteins were incubated with 50 μM fluorescently-labeled acetylated peptide substrate and test compound for 2 hours at RT in HDAC assay buffer containing 50 mM Tris-HCl (pH 8.0), 137 mM NaCl, 2.7 mM KCl, 1 mM MgCl2, 1% DMSO, and 1% BSA.
Reactions were terminated by the addition of the Developer after 2 hours, and the development of fluorescence signal, which was relative to the amount of deacetylated peptide, was monitored by time-course measurement of EnVision (PerkinElmer). The HDAC activity was estimated from the slope of time-course measurement of the fluorescence intensity. The slope of no-enzyme control (substrate alone) was served as background, and % Enzyme activity was calculated using background-subtracted slope of no inhibitor control (DMSO) as 100% activity.

[3] = test system: Nrf2; assay: Nrf2 activation, Neh2-luc reporter assay; type: cell-based; details: measured at 10 μM
Protocol: as §1

[4] = Table 1, performed by Reaction Biology Corporation, read-out: HDAC isoform IC50 (nM) 1
[5] = Table 2 isoform selectivity, read-out: HDAC Inhibition (IC50 uM) isoform 1

SMILES | IC50 [2, 4] [nM] | fold induction at 10 µM [1] | IC50 [2, 5] [nM] | fold induction at 10 µM [3]
O=C(NO)c1ccc(CN2CCc3ccc(Cl)cc32)cc1 [II-ING-6, 4-((6-Chloroindolin-1-yl)methyl)-N-hydroxybenzamide] | 5580 | 7.5 | 3770 | 5.6
Cn1c(NCc2ccc(C(=O)NO)cc2)nc2ccccc21 [II-ING-13, N-Hydroxy-4-(((1-methyl-1H-benzo[d]imidazol-2-yl)amino)methyl)benzamide] | 2630 | 2.6 | 2550 | 1.8
O=C(NO)c1ccc(CN2CCc3ccc(F)cc32)cc1 [II-ING-41, 4-((6-Fluoroindolin-1-yl)methyl)-N-hydroxybenzamide] | 11800 | 3.6 | 3670 | 7.8
O=C(NO)c1ccc(CN2CCc3ccccc32)cc1 [II-ING-44, N-Hydroxy-4-(indolin-1-ylmethyl)benzamide] | 17600 | 1.4 |  | 2.3
O=C(NO)c1ccc(CN2C(=O)C(F)(F)c3ccccc32)cc1 [II-ING-66, 4-((3,3-Difluoro-2-oxoindolin-1-yl)methyl)-N-hydroxybenzamide] | 3550 | 5.6 |  | 9.9

Now from value to molecule, other results behind:

IC50 [2, 4] [nM] | SMILES | fold induction at 10 µM [1] | IC50 [2, 5] [nM] | fold induction at 10 µM [3]
12700 | O=C(NO)c1ccc(CN2CCc3cc(Cl)ccc32)cc1 [II-ING-39, 4-((5-Chloroindolin-1-yl)methyl)-N-hydroxybenzamide] | 7 |  | 6.5
20000 | O=C(NO)c1ccc(CN2CCc3cc(F)ccc32)cc1 [II-ING-42, 4-((5-Fluoroindolin-1-yl)methyl)-N-hydroxybenzamide] | 1.4 |  | 7.7
4950 | COc1ccc2c(c1)CCN2Cc1ccc(C(=O)NO)cc1 [II-ING-49, N-Hydroxy-4-((5-methoxyindolin-1-yl)methyl)benzamide] | 1 |  | 2.4

From patent US10934255B2, “Nrf and HIF activators/HDAC inhibitors and therapeutic methods using the same” (THE BOARD OF TRUSTEES OF THE UNIVERSITY OF ILLINOIS, priority 2017, dated 2021)
